Assay results reported in publication PMC4490105 (Cell reports, 2015).

How the values were obtained:
[1] = tested on: TLR7; experiment: R848; type: cell-based, mouse; details: murine macrophages; R848 (2.85 μM); Figure 2E, F
[2] = target: NF-kB activator 1 CC loop decoy peptide SEFIR CC loop (Homo sapiens) (UniProt O43734); experiment: SPR; details: cited from earlier work
[3] = tested on: influenza A/PR/8/34 (PR8); details: ref Shirey et al., 2013; cited from earlier work

Chain of IL-17RA (Q96F46 33-866): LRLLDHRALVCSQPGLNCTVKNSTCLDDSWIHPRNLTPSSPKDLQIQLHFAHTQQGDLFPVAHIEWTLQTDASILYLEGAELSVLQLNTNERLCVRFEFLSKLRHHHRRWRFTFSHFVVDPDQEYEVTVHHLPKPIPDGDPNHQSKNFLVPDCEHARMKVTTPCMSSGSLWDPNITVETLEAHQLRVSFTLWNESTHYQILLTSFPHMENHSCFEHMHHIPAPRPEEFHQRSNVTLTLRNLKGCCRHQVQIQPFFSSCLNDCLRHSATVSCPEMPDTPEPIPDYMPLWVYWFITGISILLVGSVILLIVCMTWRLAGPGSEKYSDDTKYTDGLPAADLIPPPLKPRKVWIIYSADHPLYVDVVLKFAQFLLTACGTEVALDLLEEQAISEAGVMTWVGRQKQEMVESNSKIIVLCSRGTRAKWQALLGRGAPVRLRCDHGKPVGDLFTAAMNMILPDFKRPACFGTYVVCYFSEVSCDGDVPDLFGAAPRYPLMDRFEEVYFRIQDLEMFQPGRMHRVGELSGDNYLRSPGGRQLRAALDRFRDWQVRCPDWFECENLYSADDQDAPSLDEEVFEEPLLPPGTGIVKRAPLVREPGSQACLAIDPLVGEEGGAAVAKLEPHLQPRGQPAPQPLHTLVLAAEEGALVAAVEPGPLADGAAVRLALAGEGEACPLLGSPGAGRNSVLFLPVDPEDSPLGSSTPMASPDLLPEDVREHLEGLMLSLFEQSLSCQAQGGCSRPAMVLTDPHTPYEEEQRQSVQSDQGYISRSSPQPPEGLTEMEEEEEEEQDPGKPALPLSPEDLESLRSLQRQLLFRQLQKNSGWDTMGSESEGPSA

For `CCOCc1nc2c(N)nc3ccccc3c2n1CC(C)(C)O` [R848], the “Induction of TNF-α and IL-6” value [1] was “induced robust production”.

For IL-17RA (from UniProt Q96F46), the Kd [2] is given as 117 µM.

In the case of `CCCCCC/C=C\CCCCCCCCCC(=O)N[C@H]1[C@H](OC[C@H]2O[C@H](OP(=O)(O)O)[C@H](NC(=O)CC(=O)CCCCCCCCCCC)[C@@H](OCCCCCCCCCC)[C@@H]2O)O[C@H](COC)[C@@H](OP(=O)(O)O)[C@@H]1OCC[C@@H](CCCCCCC)OC` [Eritoran], the “Protection from PR8 infection, TLR2−/− mice” value [3] is listed as “could not be protected” and the “Protection from PR8 infection, mice” value [3] is listed as “protected mice from PR8 infection”.
